Where two headings read alike, the source gives them in different places.
Target: T1, mAChR M4 (Homo sapiens, UniProt P08173)
T1 construct: expressed in transfected cells; host or cells: CHO-K1 cells stably transfected with M4 cDNA and chimeric G-protein Gqi5
T1 sequence (P08173 1-479): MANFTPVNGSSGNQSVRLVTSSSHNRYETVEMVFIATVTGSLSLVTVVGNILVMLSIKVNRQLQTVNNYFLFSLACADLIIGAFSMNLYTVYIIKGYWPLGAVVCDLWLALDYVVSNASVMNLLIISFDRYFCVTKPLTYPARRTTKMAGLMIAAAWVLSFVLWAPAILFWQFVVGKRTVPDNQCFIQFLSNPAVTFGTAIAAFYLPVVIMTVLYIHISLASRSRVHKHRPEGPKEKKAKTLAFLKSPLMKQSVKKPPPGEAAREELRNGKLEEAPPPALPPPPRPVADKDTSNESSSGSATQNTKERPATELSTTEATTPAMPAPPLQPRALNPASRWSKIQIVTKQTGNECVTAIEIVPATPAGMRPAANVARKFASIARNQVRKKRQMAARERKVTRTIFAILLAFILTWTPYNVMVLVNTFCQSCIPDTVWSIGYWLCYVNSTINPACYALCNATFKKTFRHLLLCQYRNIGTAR
Test: mAChR M4 cell-based functional assay (calcium mobilization, potentiation of EC20 acetylcholine response)

[1] = mAChR M4 cell-based functional assay, >10,000 estimated for low potency compounds without plateau, read-out: EC50

For `Cc1nnc2sc(C(=O)NCc3ccc([S+]([O-])C(F)F)cc3)c(N)c2c1C` (stereo not drawn) [Example B478], the Emax at 30 µM (% ACh maximum at 30 μM) was 71% and the EC50 [1] was 23 nM.

Molecule `CSc1ccc(CNC(=O)c2sc3nnc(C)c(C)c3c2N)cc1` [Example B26] has an Emax at 30 µM (% ACh maximum at 30 μM) of 76% and an EC50 (EC50 (nM)) of 11 nM.

Molecule `Cc1nnc2sc(C(=O)NC3CCN(C(=O)Cc4cccs4)C3)c(N)c2c1C` (stereo not drawn) [Example B227] has an Emax at 30 µM (% ACh maximum at 30 μM) of 76% and an EC50 [1] of 920 nM.

`Cc1nnc2sc(C(=O)N3CC(C4CCCCC4)C3)c(N)c2c1C` [Example B262] gave an Emax at 30 µM (% ACh maximum at 30 μM) of 66% and an EC50 [1] of 50 nM.

Work on `Cc1nnc2sc(C(=O)NC3CN(S(=O)(=O)c4ccco4)C3)c(N)c2c1C` [Example B99] yielded an Emax at 30 µM (% ACh maximum at 30 μM) of 65% and an EC50 [1] of 160 nM.

With `Cc1nnc2sc(C(=O)NC3CN(C(=O)N4CCCCC4)C3)c(N)c2c1C` [Example B125] the Emax at 30 µM (% ACh maximum at 30 μM) was 58% and the EC50 [1] was 1000 nM.

For `Cc1nnc2sc(C(=O)NC3CN(C(=O)c4ccc(F)c(F)c4)C3)c(N)c2c1C` [Example B131], the Emax at 30 µM (% ACh maximum at 30 μM) was 76% and the EC50 [1] was 150 nM.

In the case of `Cc1nnc2sc(C(=O)N3CC(F)(c4cccnc4)C3)c(N)c2c1C` [Example B308], the Emax at 30 µM (% ACh maximum at 30 μM) is reported as 42% and the EC50 [1] is reported as 850 nM.

With `CCCCC(=O)N1CC2CN(C(=O)c3sc4nnc(C)c(C)c4c3N)CC2C1` (stereo not drawn) [Example B389] the Emax at 30 µM (% ACh maximum at 30 μM) was 47% and the EC50 [1] was 1300 nM.

`COc1ccc(CNC(=O)c2sc3nnc(C)c(C)c3c2N)cc1F` [Example B90] gave an Emax at 30 µM (% ACh maximum at 30 μM) of 58%.

`Cc1ccc(S(=O)(=O)N2CCCN(C(=O)c3sc4nnc(C)c(C)c4c3N)CC2)cc1` [Example B114] showed an Emax at 30 µM (% ACh maximum at 30 μM) of 48% and an EC50 [1] of 1600 nM.

`Cc1ccc(CNC(=O)c2sc3nnc(C)c(C)c3c2N)nc1` [Example B470] was tested, and the Emax at 30 µM (% ACh maximum at 30 μM) was 48% and the EC50 [1] was 510 nM.

Molecule `Cc1cc(-c2ccc(CNC(=O)c3sc4nnc(C)c(C)c4c3N)cc2)cnc1F` [Example B484] has an Emax at 30 µM (% ACh maximum at 30 μM) of 63% and an EC50 [1] of 110 nM.

Work on `Cc1nnc2sc(C(=O)NCc3ccc4c(c3)OC(F)(F)O4)c(N)c2c1C` [Example B42] yielded an Emax at 30 µM (% ACh maximum at 30 μM) of 76% and an EC50 [1] of 26 nM.

Work on `Cc1nnc2sc(C(=O)NCc3cccc(F)c3)c(N)c2c1C` [Example B7] yielded an Emax at 30 µM (% ACh maximum at 30 μM) of 97% and an EC50 [1] of 140 nM.

In the case of `Cc1nnc2sc(C(=O)NCc3ccc([S+](C)[O-])cc3)c(N)c2c1C` (stereo not drawn) [Example B34], the Emax at 30 µM (% ACh maximum at 30 μM) is reported as 82% and the EC50 (EC50 (nM)) is reported as 140 nM.

Work on `COc1ccccc1N1CCC(NC(=O)c2sc3nnc(C)c(C)c3c2N)C1` (stereo not drawn) [Example B271] yielded an Emax at 30 µM (% ACh maximum at 30 μM) of 71% and an EC50 [1] of 3000 nM.

`Cc1nnc2sc(C(=O)NC3CN(c4ncc(-c5ccccc5)s4)C3)c(N)c2c1C` [Example B426] gave an Emax at 30 µM (% ACh maximum at 30 μM) of 67% and an EC50 [1] of 440 nM.

Work on `Cc1nnc2sc(C(=O)N3CCC(NC(=O)CC4CCCCC4)C3)c(N)c2c1C` (stereo not drawn) [Example B230] yielded an Emax at 30 µM (% ACh maximum at 30 μM) of 63% and an EC50 [1] of 3400 nM.

With `Cc1nnc2sc(C(=O)NC3CCN(C(=O)C4CCCCC4)C3)c(N)c2c1C` (stereo not drawn) [Example B226] the Emax at 30 µM (% ACh maximum at 30 μM) was 84% and the EC50 [1] was 430 nM.

`Cc1ccc(S(=O)(=O)N2CCC(NC(=O)c3sc4nnc(C)c(C)c4c3N)C2)cc1` (stereo not drawn) [Example B244] showed an Emax at 30 µM (% ACh maximum at 30 μM) of 79% and an EC50 [1] of 580 nM.

`Cc1nnc2sc(C(=O)N3CCC(NC(=O)OCc4ccccc4)C3)c(N)c2c1C` (stereo not drawn) [Example B220] showed an Emax at 30 µM (% ACh maximum at 30 μM) of 67% and an EC50 [1] of 830 nM.

For `COc1ccc(CNC(=O)c2sc3nnc(C)c(C)c3c2N)nc1` [Example B508], the Emax at 30 µM (% ACh maximum at 30 μM) was 54% and the EC50 [1] was 770 nM.

For `Cc1nnc2sc(C(=O)NCc3ccccn3)c(N)c2c1C` [Example B13], the Emax at 30 µM (% ACh maximum at 30 μM) was 58% and the EC50 [1] was 1000 nM.

Molecule `Cc1nnc2sc(C(=O)NC3CN(S(=O)(=O)c4ccc(F)cc4F)C3)c(N)c2c1C` [Example B146] has an Emax at 30 µM (% ACh maximum at 30 μM) of 82% and an EC50 [1] of 66 nM.

In the case of `Cc1nnc2sc(C(=O)N3CC(NC(=O)c4ccccc4)C3)c(N)c2c1C` [Example B169], the Emax at 30 µM (% ACh maximum at 30 μM) is reported as 68% and the EC50 [1] is reported as 1500 nM.

`CCOc1ccc(CNC(=O)c2sc3nnc(C)c(C)c3c2N)cc1` [Example B198] was tested, and the Emax at 30 µM (% ACh maximum at 30 μM) was 63% and the EC50 [1] was 25 nM.

`Cc1nnc2sc(C(=O)NCCNC(=O)Oc3ccccc3)c(N)c2c1C` [Example B374] was tested, and the “Emax (%)*” value (% ACh maximum at 30 μM) was 33% and the EC50 [1] was > 10000 nM.

`Cc1nnc2sc(C(=O)NCc3ccc4c(c3)CC(=O)N4)c(N)c2c1C` [Example B276] was tested, and the Emax at 30 µM (% ACh maximum at 30 μM) was 67% and the EC50 [1] was 360 nM.

`Cc1nnc2sc(C(=O)NCc3ccc(S(=O)(=O)C(F)F)cc3Cl)c(N)c2c1C` [Example B507] showed an Emax at 30 µM (% ACh maximum at 30 μM) of 66% and an EC50 [1] of 510 nM.

With `Cc1nnc2sc(C(=O)NCc3ccc(O)c(F)c3)c(N)c2c1C` [Example B158] the Emax at 30 µM (% ACh maximum at 30 μM) was 66% and the EC50 [1] was 28 nM.

`Cc1nnc2sc(C(=O)NC3CCN(C(=O)c4c(F)cccc4F)C3)c(N)c2c1C` (stereo not drawn) [Example B243] gave an Emax at 30 µM (% ACh maximum at 30 μM) of 78% and an EC50 [1] of 590 nM.
